One data set in a line: in vitro. To be noted: human, THP-1 cells.
Data set [1] deals with Leishmania mexicana. Description: Inhibition of Leishmania mexicana PTR1 at 50 uM using H2B as substrate incubated for 10 mins followed by addition of NADPH measured for 10 to 50 mins.
Data set [2] relates to Trypanosoma brucei brucei. Description: Antitrypanosomal activity against Trypanosoma brucei brucei Lister 427 bloodstream forms at 10 uM after 72 hrs by resazurin-based assay. It counts as functional, organism-based. On the technique in general: The colour change of resazurin is a common sign of viable cells or microbes.
Data set [3] in a line: Cytotoxicity against human THP1 cells after 72 hrs by MTT assay. It counts as cell-based. To be noted: THP-1 cells, read-out: NOAEL.
For the next data set, the target named is T1, Cytochrome P450 1A2 (Homo sapiens, UniProt P05177).
T1 sequence (P05177 whole entry): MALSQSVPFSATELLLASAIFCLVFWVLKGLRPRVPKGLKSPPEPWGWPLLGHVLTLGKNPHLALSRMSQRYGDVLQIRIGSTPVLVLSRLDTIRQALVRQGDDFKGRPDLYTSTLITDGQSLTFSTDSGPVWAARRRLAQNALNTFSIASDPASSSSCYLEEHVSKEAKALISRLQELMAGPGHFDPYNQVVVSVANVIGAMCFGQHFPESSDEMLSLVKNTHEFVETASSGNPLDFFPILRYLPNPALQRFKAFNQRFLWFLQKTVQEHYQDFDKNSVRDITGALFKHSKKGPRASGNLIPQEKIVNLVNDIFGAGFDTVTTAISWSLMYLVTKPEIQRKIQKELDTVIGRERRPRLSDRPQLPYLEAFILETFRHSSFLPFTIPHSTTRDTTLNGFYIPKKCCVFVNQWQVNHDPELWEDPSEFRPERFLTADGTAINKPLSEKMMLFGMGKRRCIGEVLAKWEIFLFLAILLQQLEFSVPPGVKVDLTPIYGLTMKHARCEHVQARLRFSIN
Description: (§1) Inhibition of human microsomal CYP1A2 expressed in baculovirus infected BTI-TN-5B1-4 cells at 10 uM incubated for 30 mins by luciferase assay. The data set is classed as ADME. To be noted: bti-tn-5b1-4, 0.5 h, 10 µM.

Data set [4] deals with Trypanosoma brucei brucei. Description: Antitrypanosomal activity against Trypanosoma brucei brucei Lister 427 bloodstream forms assessed as synergy coefficient at 1.25 to 5 uM after 72 hrs in presence of MTX by resazurin-based assay. It counts as functional.
The subject of the next data set is WI-38. Description: Cytotoxicity against human WI38 cells at 100 uM after 48 hrs by cell titer glo assay. The data set is classed as cell-based. To be noted: wi-38, 48 h.
For data set [5], the system named is Trypanosoma brucei. Description: Inhibition of Trypanosoma brucei PTR1 at 50 uM using H2B as substrate incubated for 10 mins followed by addition of NADPH measured for 10 to 50 mins.
For the next data set, the system named is A549. Description: Cytotoxicity against human A549 cells at 100 uM after 48 hrs by cell titer glo assay. It counts as cell-based. To be noted: a549, 48 h. (In general: In ATP-based viability assays light output follows the ATP content of the culture.)
Another data set relates to 786-0. Description: Mitochondrial toxicity in human 786-O cells incubated for 6 hrs by mitotracker red staining based-uptake method. To be noted: 786-0, 6 h. The data set is classed as cell-based.
The test system of data set [6] is Trypanosoma brucei. Description: Inhibition of Trypanosoma brucei DHFR at 50 uM using folic aid as substrate by spectrophotometric analysis.
Data set [7] concerns the target Aurora kinase B (Homo sapiens) (UniProt Q96GD4). Description: Inhibition of recombinant full-length human aurora B kinase expressed in baculovirus system using MBP as substrate at 10 uM incubated for 45 mins by ADP-glo kinase assay. (ADP-Glo turns the ADP formed in a reaction into a luminescent signal.)
Data set [8] relates to Trypanosoma brucei brucei. Description: Antitrypanosomal activity against Trypanosoma brucei brucei Lister 427 bloodstream forms after 72 hrs by resazurin-based assay. It counts as functional, organism-based. To be noted: Lister 427, 72 h.
Data set [9] deals with T2, Dihydrofolate reductase (Homo sapiens) (UniProt P00374).
T2 sequence (whole entry): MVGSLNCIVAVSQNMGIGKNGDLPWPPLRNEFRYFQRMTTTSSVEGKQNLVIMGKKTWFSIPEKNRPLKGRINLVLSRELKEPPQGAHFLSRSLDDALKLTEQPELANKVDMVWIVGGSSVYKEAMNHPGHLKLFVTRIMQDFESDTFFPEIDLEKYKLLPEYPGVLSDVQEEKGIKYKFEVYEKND
Description: Inhibition of human DHFR at 50 uM using folic aid as substrate by spectrophotometric analysis.

The target in data set [10] is Thymidylate synthase (Homo sapiens) (UniProt P04818). Description: Inhibition of human thymidylate synthase at 50 uM using folic aid as substrate by spectrophotometric analysis.
Sequence of Thymidylate synthase (Homo sapiens) (P04818 2-313 limits assumed): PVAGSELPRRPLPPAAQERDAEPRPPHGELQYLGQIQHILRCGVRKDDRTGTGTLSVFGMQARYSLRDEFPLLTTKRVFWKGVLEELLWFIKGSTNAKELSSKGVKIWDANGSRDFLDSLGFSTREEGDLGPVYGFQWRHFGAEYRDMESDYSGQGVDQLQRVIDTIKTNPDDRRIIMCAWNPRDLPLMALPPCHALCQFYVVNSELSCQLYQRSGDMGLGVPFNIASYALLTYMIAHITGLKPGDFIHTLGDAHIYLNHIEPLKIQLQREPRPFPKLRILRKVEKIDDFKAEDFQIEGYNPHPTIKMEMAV
Data set [11] relates to Leishmania infantum. Description: Antiparasitic activity against Leishmania infantum MOM/MA67ITMAP263 amastigotes infected in human THP1 cells at 10 uM after 72 hrs by steady-glo luminescence assay. The data set is classed as functional.
Data set [12] deals with Leishmania mexicana. Description: Inhibition of Leishmania mexicana DHFR at 50 uM using folic aid as substrate by spectrophotometric analysis.
Data set [13] has as its system Trypanosoma brucei brucei. Description: Antitrypanosomal activity against Trypanosoma brucei brucei Lister 427 bloodstream forms assessed as synergy coefficient at 2.5 to 5 uM after 72 hrs in presence of MTX by resazurin-based assay. The data set is classed as functional.
Data set [14] concerns Leishmania infantum. Description: Antiparasitic activity against Leishmania infantum MOM/MA67ITMAP263 amastigotes infected in human THP1 cell after 72 hrs by steady-glo luminescence assay. It counts as functional, organism-based. To be noted: MOM/MA67ITMAP263, THP-1, 72 h.
The test system of the next data set is Trypanosoma cruzi. Description: Antitrypanosomal activity against Trypanosoma cruzi Y trypomastigotes infected in human HG39 cells after 48 hrs by RT-PCR assay.
For data set [15], the system named is Trypanosoma brucei. Description: Inhibition of Trypanosoma brucei PTR1 using H2B as substrate incubated for 10 mins followed by addition of NADPH measured for 10 to 50 mins.
Another data set deals with THP-1. Description: Cytotoxicity against human THP1 cells at 12.5 to 50 uM after in presence of MTX by MTT assay. To be noted: thp-1, 50 µM. The data set is classed as cell-based.
The test system of data set [16] is Trypanosoma brucei brucei. Description: Antitrypanosomal activity against Trypanosoma brucei brucei Lister 427 bloodstream forms assessed as maximum synergy coefficient at 1.25 after 72 hrs in presence of MTX by resazurin-based assay. It counts as functional.
A further data set deals with CYP1A2 (Homo sapiens, UniProt P05177). The data set is described as §1. It counts as ADME.

The source made the active and inactive calls. No cut-off for these calls is given here.

These results are taken from ChEMBL document CHEMBL4431321, “Profiling of Flavonol Derivatives for the Development of Antitrypanosomatidic Drugs” (J Med Chem, 2016).

Sequence of Aurora kinase B (Homo sapiens) (Q96GD4 whole entry): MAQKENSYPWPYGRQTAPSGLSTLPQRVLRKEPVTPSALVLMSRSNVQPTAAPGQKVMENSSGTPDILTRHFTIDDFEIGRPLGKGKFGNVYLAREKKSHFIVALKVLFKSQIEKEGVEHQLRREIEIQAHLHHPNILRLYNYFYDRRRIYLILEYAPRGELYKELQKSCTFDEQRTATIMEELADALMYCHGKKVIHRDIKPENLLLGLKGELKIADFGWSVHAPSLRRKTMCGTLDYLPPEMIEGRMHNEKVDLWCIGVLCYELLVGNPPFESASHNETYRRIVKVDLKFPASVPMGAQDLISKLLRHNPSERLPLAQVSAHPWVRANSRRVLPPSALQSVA
Description for in vitro: Selectivity index, ratio of CC50 for human THP1 cells to EC50 for Trypanosoma brucei brucei Lister 427 bloodstream forms

On to `COc1cccc(-c2oc3ccc(OC)cc3c(=O)c2O)c1`, for which the selectivity ratio in “in vitro” turned out to be 7. Moreover, the inhibition entry in the data set on Leishmania mexicana [1] is “inactive”. In data set [2], the result was Active. The MNTC at 72 h in data set [3] was found to be 10 µM. Moreover, the “inhibition (INH)” value at Cytochrome P450 1A2 was “Not Active”. Also, the CI in [4] is greater than 1. Moreover, the Activity result in the data set on WI-38, in the data set on A549 and in the data set with 786-0 was “Non-Toxic” in each case. For the same compound, the inhibition with Trypanosoma brucei [5] was 4%.

In the case of `O=c1c(O)c(-c2cc(O)c(O)c(O)c2)oc2cc(O)ccc12` [ROBINETIN], the inhibition in the data set with Trypanosoma brucei [6] was less than 25%; in [9], less than 30%; with Trypanosoma brucei [5] it was 85%; in the data set on Leishmania mexicana [12], less than 25%. Moreover, the inhibition entry in data set [7] was “Active”. It took 18 µM to reach a half-maximal effect in data set [8] (EC50). Further, the selectivity ratio in “in vitro” was found to be 5. Further, the MNTC at 72 h in data set [3] turned out to be 100 µM. Besides, in data set [10], the inhibition entry is “inactive”. The Activity entry in the data set on WI-38 was “Non-Toxic”; in the data set on Leishmania infantum [11], 10%; in the data set on A549 it was “Non-Toxic”; in the data set on 786-0, “Non-Toxic”.

For the compound `O=c1c(O)c(-c2cccc(O)c2)oc2ccccc12`, the inhibition with Trypanosoma brucei [6] was 42 to 43%; in the data set on Leishmania mexicana [1], 35%; in [9], less than 30%; with Trypanosoma brucei [5] it was 35%; with Leishmania mexicana [12], 42 to 43%. In [8], the EC50 is 5.18 µM. For the same compound, the selectivity ratio in “in vitro” was determined as 4. The outcome in data set [2] was Active. Besides, in [3], the MNTC at 72 h is 20 µM. For the same compound, at Cytochrome P450 1A2, the “inhibition (INH)” value is reported as “Not Active”. Also, the inhibition result in data set [10] is “inactive”. Besides, the Activity entry in the data set with WI-38, with A549 and in the data set with 786-0 was “Non-Toxic” in each case.

In the case of `O=c1c(O)c(-c2ccc(O)cc2)oc2cc(O)ccc12` [RESOKAEMPFEROL], the inhibition in the data set on Trypanosoma brucei [6] is less than 25%; in data set [9], less than 30%; in the data set on Trypanosoma brucei [5], 33%; in the data set on Leishmania mexicana [12], less than 25%. The same compound returned an EC50 in data set [8] of 4.29 µM. Further, the selectivity ratio in the data set “in vitro” is 4. Moreover, the result in data set [2] was Active. For the same compound, in data set [3], the MNTC at 72 h was 20 µM. The CI in data set [13] and in data set [4] was greater than 1.5 throughout. In addition, the “inhibition (INH)” value on Cytochrome P450 1A2 is listed as “Not Active”. The inhibition result in data set [10] was “inactive”. In addition, the Activity entry with WI-38, in the data set with A549 and with 786-0 was “Non-Toxic” in each case.

`CCCCCCCCCCCCCCCCOP(=O)([O-])OCC[N+](C)(C)C` [MILTEFOSINE]: the midpoint of inhibition with Leishmania infantum [14], the IC50, lay at 2.65 µM.

As for `CC1CS(=O)(=O)CCN1/N=C/c1ccc([N+](=O)[O-])o1` (centres undefined) [NIFURTIMOX], in the data set with Trypanosoma cruzi, the IC50 worked out at 2.2 µM.

On to `O=c1c(O)c(-c2ccc(O)c(O)c2)oc2cc(O)cc(O)c12`, for which, in data set [8], the IC50 is less than 30 µM. For the same compound, the inhibition entry with Trypanosoma brucei [15] was “inactive”.

For the compound `O=c1c(O)c(-c2ccc(O)c(O)c2)oc2cc(O)ccc12` [FISETIN], the inhibition is less than 25% with Trypanosoma brucei [6], less than 30% in [9], 53% with Trypanosoma brucei [5] and less than 25% with Leishmania mexicana [12]. In [7], the inhibition entry is “Active”. Further, in [10], the inhibition entry is “inactive”. Moreover, the Activity entry in the data set with WI-38, with A549 and with 786-0 was “Non-Toxic” each time.

In the case of `COc1cccc(-c2oc3ccccc3c(=O)c2O)c1`, in the data set “in vitro”, the selectivity ratio was determined as 4. For the same compound, the inhibition entry with Leishmania mexicana [1] and in the data set with Trypanosoma brucei [5] was “inactive” throughout. In addition, in data set [2], the result was Active. In data set [3], the MNTC at 72 h was 10 µM. Further, the “inhibition (INH)” value against Cytochrome P450 1A2 is listed as “Not Active”. For the same compound, the Activity result with WI-38, in the data set on A549 and with 786-0 was “Non-Toxic” throughout.

Take `COc1ccc(-c2oc3ccc(OC)cc3c(=O)c2O)cc1`: the Activity entry in the data set with THP-1, with WI-38, in the data set with A549 and in the data set on 786-0 was “Non-Toxic” throughout. The CI in data set [16] is listed as 3.1; in [13], greater than 1.5. Also, in the data set “in vitro”, the selectivity ratio was determined as 1. In addition, the result in data set [2] was Active. Besides, the MNTC at 72 h in data set [3] came out at 20 µM. On CYP1A2, this compound showed an inhibition at 0.5 h, 10 µM of 72%.

With `COc1ccc2c(=O)c(O)c(-c3cc(OC)c(OC)c(OC)c3)oc2c1`, in “in vitro”, the selectivity ratio worked out at 17. The MNTC at 72 h in [3] was 20 µM. On Cytochrome P450 1A2, the “inhibition (INH)” value was “Not Active”. Besides, the Activity entry was “Non-Toxic” in the data set on WI-38, 35% in the data set with Leishmania infantum [11], “Non-Toxic” with A549 and “Non-Toxic” in the data set on 786-0. The inhibition result with Trypanosoma brucei [5] was “inactive”.

With `C[C@@H]1O[C@@H](OC[C@H]2O[C@@H](Oc3c(-c4ccc(O)c(O)c4)oc4cc(O)cc(O)c4c3=O)[C@H](O)[C@@H](O)[C@@H]2O)[C@H](O)[C@H](O)[C@H]1O`, in data set [8], the IC50 was less than 30 µM. Besides, the inhibition result in the data set with Trypanosoma brucei [15] was “inactive”.

A word on the inhibition: it is the share of the control response that was lost under treatment. A word on the EC50: it is the concentration at which the effect is half-maximal. A higher EC50 goes with weaker potency. A word on the IC50: it is the concentration that inhibits the measured activity by half. Low values mean higher potency, high ones lower potency.
